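Each compound was tested at five concentrations against cells in 96-well plates for 48 hours. GI50 = concentration required for 50% inhibition of growth. TGI: total growth inhibition.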
Key:
Experiment in all cases: DTP human tumour cell line panel, 48 h
OVCAR-3 ovarian = system: OVCAR-3 ovarian
M14 melanoma = system: M14 melanoma
SW-620 colon = system: SW-620 colon
TK-10 renal = system: TK-10 renal
KM12 colon = system: KM12 colon
HOP-62 NSCLC = system: HOP-62 NSCLC
SNB-19 CNS = system: SNB-19 CNS
SF-268 CNS = system: SF-268 CNS
K-562 leukemia = system: K-562 leukemia
IGROV1 ovarian = system: IGROV1 ovarian
SK-MEL-2 melanoma = system: SK-MEL-2 melanoma
ACHN renal = system: ACHN renal
NCI/ADR-RES ovarian = system: NCI/ADR-RES ovarian
SK-OV-3 ovarian = system: SK-OV-3 ovarian
OVCAR-8 ovarian = system: OVCAR-8 ovarian
CCRF-CEM leukemia = system: CCRF-CEM leukemia
NCI-H226 lung = system: NCI-H226 lung
OVCAR-4 ovarian = system: OVCAR-4 ovarian
A498 renal = system: A498 renal
HCT-116 colon = system: HCT-116 colon
786-0 renal = system: 786-0 renal
BT-549 breast = system: BT-549 breast
T-47D breast = system: T-47D breast
MDA-MB-435 = system: MDA-MB-435
PC-3 prostate = system: PC-3 prostate
SN12C renal = system: SN12C renal
HT29 colon = system: HT29 colon
HOP-92 NSCLC = system: HOP-92 NSCLC
OVCAR-5 ovarian = system: OVCAR-5 ovarian
MALME-3M melanoma = system: MALME-3M melanoma
HCT-15 colon = system: HCT-15 colon
RXF 393 renal = system: RXF 393 renal
SK-MEL-28 melanoma = system: SK-MEL-28 melanoma
A549 NSCLC = system: A549 NSCLC
RPMI-8226 leukemia = system: RPMI-8226 leukemia
MDA-MB-231 breast = system: MDA-MB-231 breast
SR leukemia = system: SR leukemia
UACC-62 melanoma = system: UACC-62 melanoma
SK-MEL-5 melanoma = system: SK-MEL-5 melanoma
UO-31 renal = system: UO-31 renal
SNB-75 CNS = system: SNB-75 CNS
HL-60(TB) leukemia = system: HL-60(TB) leukemia
SF-295 CNS = system: SF-295 CNS
COLO 205 colon = system: COLO 205 colon
U251 CNS = system: U251 CNS
DU-145 prostate = system: DU-145 prostate
NCI-H23 lung = system: NCI-H23 lung
SF-539 CNS = system: SF-539 CNS
NCI-H460 lung = system: NCI-H460 lung
MCF7 breast = system: MCF7 breast
HCC-2998 colon = system: HCC-2998 colon
MOLT-4 leukemia = system: MOLT-4 leukemia
UACC-257 melanoma = system: UACC-257 melanoma
NCI-H522 lung = system: NCI-H522 lung
CAKI-1 renal = system: CAKI-1 renal
EKVX NSCLC = system: EKVX NSCLC
HS 578T breast = system: HS 578T breast
LOX IMVI melanoma = system: LOX IMVI melanoma

For `COc1ccc(C2C(C#N)=C(N)Oc3c2sc2c(C)cccc32)cc1` (stereo unspecified), the GI50 (OVCAR-3 ovarian) was 414 nM, the TGI (OVCAR-3 ovarian) was 12.8 µM and the GI50 (M14 melanoma) was 304 nM. For the same compound, the TGI (M14 melanoma) was 13.4 µM, the GI50 (SW-620 colon) was 441 nM and the TGI (SW-620 colon) was 16.2 µM. It also gave a GI50 (TK-10 renal) of 9.49 µM, a TGI (TK-10 renal) of 34.2 µM and a GI50 (KM12 colon) of 460 nM. The TGI (KM12 colon) was 14.5 µM, the GI50 (HOP-62 NSCLC) was 544 nM and the TGI (HOP-62 NSCLC) was 20.8 µM. It also gave a GI50 (SNB-19 CNS) of 520 nM, a TGI (SNB-19 CNS) of 15.2 µM and a GI50 (SF-268 CNS) of 1200 nM. For the same compound, the TGI (SF-268 CNS) was 21.6 µM, the GI50 (K-562 leukemia) was 119 nM and the TGI (K-562 leukemia) was > 100 µM. It also gave a GI50 (IGROV1 ovarian) of 449 nM, a TGI (IGROV1 ovarian) of 14.5 µM and a GI50 (SK-MEL-2 melanoma) of 3.33 µM. It also gave a TGI (SK-MEL-2 melanoma) of 26.5 µM, a GI50 (ACHN renal) of 757 nM and a TGI (ACHN renal) of 14.7 µM. It also gave a GI50 (NCI/ADR-RES ovarian) of 332 nM, a TGI (NCI/ADR-RES ovarian) of 5.75 µM and a GI50 (SK-OV-3 ovarian) of 613 nM. For the same compound, the TGI (SK-OV-3 ovarian) was 41.7 µM, the GI50 (OVCAR-8 ovarian) was 547 nM and the TGI (OVCAR-8 ovarian) was 17.4 µM. For the same compound, the GI50 (CCRF-CEM leukemia) was 341 nM, the TGI (CCRF-CEM leukemia) was > 64.8 µM and the GI50 (NCI-H226 lung) was 590 nM. It also gave a TGI (NCI-H226 lung) of 15.8 µM, a GI50 (OVCAR-4 ovarian) of 2240 nM and a TGI (OVCAR-4 ovarian) of 22.5 µM. It also gave a GI50 (A498 renal) of 199 nM, a TGI (A498 renal) of 772 nM and a GI50 (HCT-116 colon) of 362 nM. The TGI (HCT-116 colon) was 6.96 µM, the GI50 (786-0 renal) was 621 nM and the TGI (786-0 renal) was 14.6 µM. The GI50 (BT-549 breast) was 956 nM, the TGI (BT-549 breast) was 7.83 µM and the GI50 (T-47D breast) was 552 nM. The TGI (T-47D breast) was 43.7 µM, the GI50 (MDA-MB-435) was 188 nM and the TGI (MDA-MB-435) was 441 nM. For the same compound, the GI50 (PC-3 prostate) was 346 nM, the TGI (PC-3 prostate) was 13 µM and the GI50 (SN12C renal) was 578 nM. For the same compound, the TGI (SN12C renal) was 11.3 µM, the GI50 (HT29 colon) was 816 nM and the TGI (HT29 colon) was 12.7 µM. It also gave a GI50 (HOP-92 NSCLC) of 1130 nM, a TGI (HOP-92 NSCLC) of 11.1 µM and a GI50 (OVCAR-5 ovarian) of 636 nM. The TGI (OVCAR-5 ovarian) was 14.2 µM, the GI50 (MALME-3M melanoma) was 431 nM and the TGI (MALME-3M melanoma) was 21 µM. It also gave a GI50 (HCT-15 colon) of 408 nM, a TGI (HCT-15 colon) of 7.32 µM and a GI50 (RXF 393 renal) of 234 nM. The TGI (RXF 393 renal) was 628 nM, the GI50 (SK-MEL-28 melanoma) was 3.83 µM and the TGI (SK-MEL-28 melanoma) was 21.7 µM. The GI50 (A549 NSCLC) was 724 nM, the TGI (A549 NSCLC) was 21.6 µM and the GI50 (RPMI-8226 leukemia) was 384 nM. For the same compound, the TGI (RPMI-8226 leukemia) was 5.53 µM, the GI50 (MDA-MB-231 breast) was 1220 nM and the TGI (MDA-MB-231 breast) was 10.6 µM. For the same compound, the GI50 (SR leukemia) was 215 nM, the TGI (SR leukemia) was 15 µM and the GI50 (UACC-62 melanoma) was 375 nM. For the same compound, the TGI (UACC-62 melanoma) was 11.9 µM, the GI50 (SK-MEL-5 melanoma) was 427 nM and the TGI (SK-MEL-5 melanoma) was 13.2 µM. The GI50 (UO-31 renal) was 340 nM, the TGI (UO-31 renal) was 13.5 µM and the GI50 (SNB-75 CNS) was 221 nM. For the same compound, the TGI (SNB-75 CNS) was 709 nM, the GI50 (HL-60(TB) leukemia) was 230 nM and the TGI (HL-60(TB) leukemia) was 1060 nM. It also gave a GI50 (SF-295 CNS) of 293 nM, a TGI (SF-295 CNS) of 2400 nM and a GI50 (COLO 205 colon) of 933 nM. The TGI (COLO 205 colon) was 8.68 µM, the GI50 (U251 CNS) was 489 nM and the TGI (U251 CNS) was 16 µM. The GI50 (DU-145 prostate) was 596 nM, the TGI (DU-145 prostate) was 18.6 µM and the GI50 (NCI-H23 lung) was 474 nM. For the same compound, the TGI (NCI-H23 lung) was 12.8 µM, the GI50 (SF-539 CNS) was 297 nM and the TGI (SF-539 CNS) was 1240 nM. It also gave a GI50 (NCI-H460 lung) of 384 nM, a TGI (NCI-H460 lung) of 10.6 µM and a GI50 (MCF7 breast) of 322 nM. The TGI (MCF7 breast) was 12.2 µM, the GI50 (HCC-2998 colon) was 1030 nM and the TGI (HCC-2998 colon) was 7.39 µM. For the same compound, the GI50 (MOLT-4 leukemia) was 524 nM, the TGI (MOLT-4 leukemia) was 9.43 µM and the GI50 (UACC-257 melanoma) was 14.3 µM. The TGI (UACC-257 melanoma) was 42.1 µM, the GI50 (NCI-H522 lung) was 369 nM and the TGI (NCI-H522 lung) was 6.01 µM. For the same compound, the GI50 (CAKI-1 renal) was 381 nM, the TGI (CAKI-1 renal) was 16.7 µM and the GI50 (EKVX NSCLC) was 677 nM. The TGI (EKVX NSCLC) was 21.3 µM, the GI50 (HS 578T breast) was 300 nM and the TGI (HS 578T breast) was 2280 nM. For the same compound, the GI50 (LOX IMVI melanoma) was 592 nM and the TGI (LOX IMVI melanoma) was 10.8 µM.

From PubChem BioAssay (NCI)
